Reference: patent US20120225909A1, “INDAZOLE ANALOG” (priority 2009, published 2012)

Legend:
[1] = molecular target: T1, human β3-adrenergic receptor (Homo sapiens, UniProt P13945); test: Test Case 1-B: human β3-adrenergic receptor agonist activity (cAMP-Screen, 96-well); type: cell-based; details: for Emax: 0.5 h, read-out: β3 receptor I.A.; for EC50 / β3 receptor I.A.: Test Case 1-B; for EC50: CHO cells, cAMP; for β3 receptor I.A.: maximum response of isoproterenol = 100%
T1 construct: A full-length human β3 gene is obtained from a human genomic library (made by Clontech) using this as the probe; expressed in transfected cells; host or cells: CHO (Chinese hamster ovary) cells, pcDNA3
How it was run: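 CHO cells stably transfected with full-length human β3 gene, serum-starved 15 min, then exposed to serially diluted compound in Ham's F-12 with 100 mmol/L HEPES and 1 mmol/L IBMX (diluent concentrations) for 30 min. Cells lysed 30 min at 37 °C; cAMP quantified by cAMP-Screen immunoassay.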

[2] = molecular target: T2, human β1-adrenergic receptor (Homo sapiens, UniProt P08588); test: Test Case 2-B: human β1-adrenergic receptor agonist activity; type: cell-based; details: for Emax: read-out: β1 receptor I.A.; for β1 receptor I.A.: Test Case 2-B, maximum response of isoproterenol = 100%
T2 construct: expressed in transfected cells; host or cells: CHO (Chinese hamster ovary) cells, pcDNA3
Method: Measurement of Human β1-Adrenergic Receptor Agonist Activity
The human β1-adrenergic receptor agonist activity is measured by the same method as in Test Case 1-B using CHO (Chinese hamster ovary) cells transfected by a human β1 gene inserted in pcDNA3 (Invitrogen).

[3] = molecular target: T3, human α1A-adrenergic receptor (Homo sapiens, UniProt P35348); test: Test Case 4-A: human α1A-adrenergic receptor agonist activity (HEK293, Ca flux, Fura-2); type: cell-based; parameters: expressed in transfected cells; host or cells: HEK293 cells, pcDNA3.1; details: for Emax: HEK293, read-out: α1A receptor I.A.; for α1A receptor I.A.: Test Case 4-A, maximum response of norepinephrine = 100%, Table 4
T3 sequence (P35348 1-466): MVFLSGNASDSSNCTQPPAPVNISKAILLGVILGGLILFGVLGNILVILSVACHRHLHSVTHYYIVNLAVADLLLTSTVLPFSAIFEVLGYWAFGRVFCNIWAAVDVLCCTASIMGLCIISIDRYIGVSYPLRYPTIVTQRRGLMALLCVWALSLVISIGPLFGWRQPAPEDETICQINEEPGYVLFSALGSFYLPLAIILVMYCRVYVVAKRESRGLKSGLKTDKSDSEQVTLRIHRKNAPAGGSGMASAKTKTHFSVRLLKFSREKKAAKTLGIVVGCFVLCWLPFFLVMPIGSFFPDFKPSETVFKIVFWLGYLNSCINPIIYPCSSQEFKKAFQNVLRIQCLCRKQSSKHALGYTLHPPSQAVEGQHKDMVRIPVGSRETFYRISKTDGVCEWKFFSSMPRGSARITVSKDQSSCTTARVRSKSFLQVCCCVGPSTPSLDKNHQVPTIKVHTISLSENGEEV
How it was run: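 Fura-2AM-loaded HEK293 cells transfected with human α1A were preincubated for 180 s. Compound (sample plate 10^−5 to 10^−12 M) was added after ~30 s of 340/380 nm excitation ratio reading (500 nm emission, 2-s intervals), followed by 270 s more reading. Ca flux is the peak height: maximum ratio after addition minus the pre-addition ratio.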

Male C57BL/6 Cr mice = test: Test Case 10: mouse piloerection test; type: in vivo
Method: Male C57BL/6 Cr mice (Japan SLC) are used. The dissolved compound is administered rapidly via a caudal vein. The animal is placed on the observation stand 5, 15, 30, and 60 minutes after administration, and the state of piloerection is observed. The state of piloerection is evaluated by the following 7-level scoring system according to the examples by the method of Irwin (Psychopharmacologia 1968, 13; 222-257).
Scoring system: “Score 0”: No piloerection at all; “Score 1”: Slight piloerection (piloerection on part of the body such as the back or neck); “Score 2”: Moderate piloerection (piloerection over the entire body); “Score 3”: Marked piloerection (piloerection over the entire body, conspicuous to the extent that the skin can be seen).
“Score 0.5” is between “Score 0” and “Score 1” “Score 1.5” is between […]. “Score 2.5” is between “Score 2” and “Score 3.”

[4] = molecular target: T4, human β2-adrenergic receptor (Homo sapiens, UniProt P07550); test: Test Case 3-B: human β2-adrenergic receptor agonist activity; type: cell-based; details: for Emax: read-out: β2 receptor I.A.; for β2 receptor I.A.: Test Case 3-B, maximum response of isoproterenol = 100%
T4 construct: expressed in transfected cells; host or cells: CHO (Chinese hamster ovary) cells, pcDNA3
Method: Measurement of Human β2-Adrenergic Receptor Agonist Activity
The human β2-adrenergic receptor agonist activity is measured by the same method as in Test Case 1-B using CHO (Chinese hamster ovary) cells transfected by a human β2 gene inserted in pcDNA3 (Invitrogen).

[5] = tested on: pentobarbital-anesthetized rats; test: Test Case 9: effects on the blood pressure and heart rate in pentobarbital-anesthetized rats; type: in vivo, rat
Method: Effects on the blood pressure and heart rate in pentobarbital-anesthetized rats
The blood pressure and heart rate of rats under pentobarbital anesthesia are measured, and the effects of rapid intravenous administration of the test compound on the blood pressure and heart rate can be studied. After anesthetizing male SD rats (Japan SLC) by intraperitoneal administration of 50 mg/kg of pentobarbital sodium (Tokyo Chemical Industry Co., Ltd.), 25 mg/kg of pentobarbital sodium is administered subcutaneously as maintenance anesthesia. The left femoral vein is exposed and stripped, and a SP10 polyethylene tube filled with saline (connected to a three-way stopcock via a ¼ venous needle) is inserted and left in place in the vein.
The inside of the left thigh is cut, and the femoral artery is exposed and stripped. A polyethylene tube filled with heparinized physiological saline solution (SP31, connected to a three-way stopcock via a Terumo injection needle 22G) is inserted and connected to a pressure transducer. The blood pressure is measured from the pressure transducer via a strain pressure amplifier (AP-641G, Nihon Kohden). The heart rate is measured with the pulse wave of the blood pressure as a trigger via a heart rate counter (AT-601G, Nihon Kohden). The blood pressure, mean blood pressure, and heart rate are output to a recorder and recorded. Furthermore, the mean blood pressure is recorded via the strain pressure amplifier (AP-641G) using the formula {[…]}.
Specifically, 3 mg/mL of test compound is administered rapidly at a volume of 1 mL/kg. The relative value (%) of the values at each point in time versus the mean blood pressure and heart rate before beginning administration are determined for each individual, and the mean±standard deviation of the relative value (%) at the time of the maximum change in each parameter is determined.

[6] = 10 mg/kg i.v., n=4, observation time 5 min, Score 0
[7] = 10 mg/kg i.v., n=4, observation time 5 min
[8] = 10 mg/kg i.v., n=4, observation time 15 min, Score 0
[9] = 10 mg/kg i.v., n=4, observation time 15 min
[10] = 10 mg/kg i.v., n=4, observation time 30 min, Score 0
[11] = 10 mg/kg i.v., n=4, observation time 30 min
[12] = 10 mg/kg i.v., n=4, observation time 60 min, Score 0
[13] = anesthetized male SD rats, 3 mg/kg intravenous over 30 seconds, maximum change, mean±standard deviation

T1 sequence (P13945 whole entry): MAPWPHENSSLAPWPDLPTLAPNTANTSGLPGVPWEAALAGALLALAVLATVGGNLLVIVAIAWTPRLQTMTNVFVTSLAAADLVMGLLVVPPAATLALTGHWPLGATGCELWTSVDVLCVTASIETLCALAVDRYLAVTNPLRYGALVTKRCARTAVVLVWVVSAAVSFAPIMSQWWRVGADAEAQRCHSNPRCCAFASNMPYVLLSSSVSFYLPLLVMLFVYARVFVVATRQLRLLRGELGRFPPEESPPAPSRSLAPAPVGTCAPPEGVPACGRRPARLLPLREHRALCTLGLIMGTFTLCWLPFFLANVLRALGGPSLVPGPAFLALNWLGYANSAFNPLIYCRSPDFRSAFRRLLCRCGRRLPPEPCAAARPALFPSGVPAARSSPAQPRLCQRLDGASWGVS
T2 sequence (P08588 whole entry): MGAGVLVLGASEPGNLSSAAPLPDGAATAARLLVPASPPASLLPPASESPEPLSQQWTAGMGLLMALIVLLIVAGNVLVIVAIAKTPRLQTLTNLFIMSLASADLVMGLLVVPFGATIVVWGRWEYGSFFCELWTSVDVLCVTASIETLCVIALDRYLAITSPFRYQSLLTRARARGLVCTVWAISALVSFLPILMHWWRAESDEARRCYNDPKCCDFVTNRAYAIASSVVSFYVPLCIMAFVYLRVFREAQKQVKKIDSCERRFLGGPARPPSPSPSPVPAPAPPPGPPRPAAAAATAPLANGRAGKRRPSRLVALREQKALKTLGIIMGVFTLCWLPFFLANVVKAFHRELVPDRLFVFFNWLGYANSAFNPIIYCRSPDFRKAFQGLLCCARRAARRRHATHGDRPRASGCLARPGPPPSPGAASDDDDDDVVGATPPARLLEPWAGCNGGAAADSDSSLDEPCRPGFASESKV
T4 sequence (P07550 whole entry): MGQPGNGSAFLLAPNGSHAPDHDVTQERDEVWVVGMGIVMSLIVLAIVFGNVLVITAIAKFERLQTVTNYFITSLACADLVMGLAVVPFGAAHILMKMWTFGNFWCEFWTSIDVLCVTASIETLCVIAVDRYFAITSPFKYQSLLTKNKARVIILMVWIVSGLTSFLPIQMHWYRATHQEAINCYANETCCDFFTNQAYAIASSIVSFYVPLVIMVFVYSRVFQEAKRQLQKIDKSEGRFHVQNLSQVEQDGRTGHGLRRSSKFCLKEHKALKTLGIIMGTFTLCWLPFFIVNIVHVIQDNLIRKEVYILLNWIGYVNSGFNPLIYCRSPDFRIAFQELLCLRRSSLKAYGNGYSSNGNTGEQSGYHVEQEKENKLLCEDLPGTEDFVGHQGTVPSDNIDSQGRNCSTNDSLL

Row | Structure (SMILES) | Emax [1] [%] | EC50 [1] [nM] | Emax [2] [%] | Emax [3] [%] | number of experimental animals matching Score 0 (no piloerection) (Male C57BL/6 Cr mice; [6]) | number of experimental animals matching Score 0.5 (Male C57BL/6 Cr mice; [7]) | number of experimental animals matching Score 0 (no piloerection) (Male C57BL/6 Cr mice; [8]) | number of experimental animals matching Score 0.5 (Male C57BL/6 Cr mice; [9]) | number of experimental animals matching Score 0 (no piloerection) (Male C57BL/6 Cr mice; [10]) | number of experimental animals matching Score 0.5 (Male C57BL/6 Cr mice; [11]) | number of experimental animals matching Score 0 (no piloerection) (Male C57BL/6 Cr mice; [12]) | number of experimental animals matching Score 0.5 (Male C57BL/6 Cr mice; 10 mg/kg i.v., n=4, observation time 60 min) | Emax [4] [%] | increase in MBP (%) [5, 13] [%] | β3 receptor I.A. [1] [%] | β1 receptor I.A. [2] [%] | α1A receptor I.A. [3] [%] | number of experimental animals matching Score 0 (no piloerection) (Male C57BL/6 Cr mice; in vivo, iv, 10 mg/kg) | β2 receptor I.A. [4] [%] | increase in MBP (%) ([5]; rat, in vivo, iv, 3 mg/kg)
1 | COc1n[nH]c2cc(OCCNC[C@H](O)c3cccc(NS(=O)(=O)c4ccccc4F)c3)ccc12 [ex5, (R)-2-fluoro-N-(3-(1-hydroxy-2-(2-(3-methoxyindazol-6-yloxy)ethylamino)ethyl)phenyl)benzenesulfonamide] | 90 | 90 | 5 | 0 | 2 | 2 | 2 | 2 | 2 | 2 | 2 | 2 | 0 | 5.1 ± 2.4 |  |  |  |  |  | 
2 | COc1n[nH]c2cc(OCCNC[C@H](O)c3cccc(NS(=O)(=O)c4cccnc4)c3)ccc12 [ex44, (R)-N-(3-(1-hydroxy-2-(2-(3-methoxyindazol-6-yloxy)-ethylamino)ethyl)phenyl)py-ridine-3-sulfonamide] |  | 13 |  |  |  |  |  |  |  |  |  |  |  |  | 58 | 9 | 0 | 4 | 5 | 5.7 ± 3.0
3 | COc1n[nH]c2cc(OCCNC[C@H](O)c3cccc(NS(=O)(=O)c4cccs4)c3)ccc12 [ex45, (R)-N-(3-(1-hydroxy-2-(2-(3-methoxyindazol-6-yloxy)-ethylamino)ethyl)phenyl)thio-phene-2-sulfonamide] |  | 2.4 |  |  |  |  |  |  |  |  |  |  |  |  | 80 | 9 | 0 | 1 | 2 | 3.9 ± 2.1
4 | COc1n[nH]c2cc(OCCNC[C@H](O)c3cccc(NS(=O)(=O)c4ccsc4)c3)ccc12 [ex46, (R)-N-(3-(1-hydroxy-2-(2-(3-methoxyindazol-6-yloxy)-ethylamino)ethyl)phenyl)thio-phene-3-sulfonamide] |  | 2.4 |  |  |  |  |  |  |  |  |  |  |  |  | 78 | 5 | 0 | 4 | −2 | 5.6 ± 1.1
5 | Cc1n[nH]c2cc(OCCNC[C@H](O)c3cccc(NS(=O)(=O)c4cc(N)ccc4F)c3)ccc12 [ex61] | 64 | 0.2 | 17 | 0 | 4 |  | 4 |  | 4 |  | 4 |  | -3 | 4.7 ± 1.2 |  |  |  |  |  | 
6 | Cc1n[nH]c2cc(OCCNC[C@H](O)c3cccc(NS(=O)(=O)c4cnn(C)c4)c3)ccc12 [ex79, (R)-N-(3-(1-hydroxy-2-(2-(3-methylindazol-6-yloxy)ethylamino)ethyl)phenyl)-1-methyl-pyrazole-4-sulfonamide] | 84 | 54 | 7 | 0 | 3 | 1 | 3 | 1 | 3 | 1 | 4 |  | 7 | 4.2 ± 1.8 |  |  |  |  |  | 
7 | O=S(=O)(Nc1cccc([C@@H](O)CNCCOc2ccc3c(C4CC4)n[nH]c3c2)c1)C1CC1 [ex212] | 95 | 29 | 6 | 0 | 4 |  | 4 |  | 4 |  | 4 |  | 15 | 2.1 ± 1.7 |  |  |  |  |  | 
